Reference: the CATMoS acute toxicity set (Mansouri et al. 2021)

Experiment: Very toxic (VT; LD50≤50mg/kg vs. all others)
Conditions: rat; in vivo; po
Description: […]The data set underlying the modeling effort for this project was initially compiled by NICEATM and U.S. EPA’s CCTE. Briefly, LD50 data were collected from rat acute oral systemic toxicity tests, including limit tests, ranges/confidence intervals, and discrete LD50 values. The full data set included 21,200 LD50 entries for 15,688 substances. […] Data were reviewed to ensure that LD50 values with obvious errors in the extracted data such as unit conversion errors (e.g., comma and decimal separator misplacements) were either fixed or removed. After this review, 16,209 LD50 values remained. Many of the chemicals represented had multiple LD50 entries, requiring that a single representative value per Chemical Abstracts Service Registry Number (CASRN) identifier be defined to facilitate modeling efforts. Based on ATWG feedback and to define the representative LD50 as a protective value while accounting for the distribution across multiple LD50s, the median of the lowest quartile was computed using only discrete LD50 values (omitting limit test data and range and confidence interval data). A detailed summary of the data compilation is available online on the NICEATM webpage dedicated to the collaborative modeling project (NTP 2020).
[…][…] For categorical designations, limit test and range/confidence interval LD50 data were integrated wherever possible. As such, the number of chemicals with end point values/calls varies across the modeling end points (Table 3) based on whether chemicals had representative LD50 values and/or other data. If a chemical had both, the representative value was used to determine categorical calls rather than limit test data. Some data were useable only for certain end points and categories depending on the thresholds. For example, ranges that spanned multiple hazard categories were considered only for the binary (very toxic/nontoxic) end points and omitted from rendering a determination for hazard category assignment.
[…]The final data set comprising 11,992 chemicals was split into training and evaluation sets […], respectively. This process was performed semirandomly by ordering chemicals based on the five end points (categorical and continuous LD50 values) and partitioning every fourth record into the evaluation set accordingly. This approach was taken to ensure an equivalent distribution of the LD50 values and the different hazard categories between the training and the evaluation sets without supervised sampling of the chemicals based on structures (Figure 1A). The sources of the chemical structures were also kept equivalent between the two sets, with chemical structures obtained from DSSTox, being the highest quality, representing over 75% of each set (Figure 1B).

With CSc1c(C)cc(O)cc1C the very_toxic was “FALSE (not_very_toxic)”.

With COCCOCCOCCOB(OCCOCCOCCOC)OCCOCCOCCOC the very_toxic was “FALSE (not_very_toxic)”.

For CNC1=C(c2cccc(C(F)(F)F)c2)C(=O)C(c2ccccc2)O1 (stereo unspecified), the very_toxic was “FALSE (not_very_toxic)”.

With O=C1NC(=O)C2CCCC12 (stereo unspecified) the very_toxic was “FALSE (not_very_toxic)”.

In the case of CCCCCCCCCCCCCC[N+](C)(C)[O-], the very_toxic is reported as “FALSE (not_very_toxic)”.

With Nc1ccc(N)c2c1C(=O)c1c(N)ccc(N)c1C2=O the very_toxic was “FALSE (not_very_toxic)”.
